Results reported in patent US10501438B2, “Aryl-substituted dihydroquinolinones, their preparation and their use as pharmaceuticals” (NEOMED Institute, priority 2015, dated 2019).

test system: human C-Myc transcription in MV-4-11 cells; test: Transcription of human C-Myc in human leukemic MV-4-11 cells (QuantiGene 2.0); type: cell-based; details: Homo sapiens, MV4-11, 4 h, inhibition of C-Myc mRNA, 4 hours treatment
Procedure: b) Transcription of Human C-Myc in Human Leukemic MV-4-11 Cells:
The effect of compounds on transcription of human C-Myc gene is monitored in human B-myelomonocytic leukemia cell line MV-4-11 (from American Type Culture Collection (ATCC), Manassas, Va., USA) using QuantiGene 2.0 assay kit (Affymetrix, Santa Clara, Calif., USA).
Typically, 8,000 MV-4-11 cells are plated in sterile 96-well plates (Costar #3598 from Fisher Scientific Canada, Ottawa, Ontario, Canada) in Iscove's medium supplemented with 10% fetal bovine serum, glutamine (2 mM), and penicillin (100 I.U.) and streptomycin (100 μg/mL) (all from Wisent Inc., St. Bruno, Quebec, Canada). Compounds are dissolved in DMSO at 30 mM. A series of 1:3 dilutions are first made in DMSO, and further 1:100 dilutions are made in serum-containing cell culture media. The final concentration of DMSO is 0.1% in cell culture media. After cells are treated with various concentrations of test compound for 4 hours, cells are lysed using Quantigene 2.0 sample processing kit (#QS0100). C-Myc mRNA is detected using a QuantiGene 2.0 assay kit (#QS0009) with gene-specific probe to human C-Myc (#SA-50182) following the manufacturer's recommendations. Luminescene signals are read on Flexstation II microplate reader (Molecular Devices, Sunnyvale, Calif., USA).

Row | Structure (SMILES) | IC50 [nM]
1 | Cc1cc(-c2cc3c(c(O[C@H](C)c4ccccn4)c2)NC(=O)CC3)cn(C)c1=O [Compound 74b, (R)-6-(1,5-dimethyl-6-oxo-1,6-dihydropyridin-3-yl)-8-(1-(pyridin-2-yl)ethoxy)-3,4-dihydroquinolin-2(1H)-one] | 410
2 | Cc1cc(-c2cc3c(c(OCc4nccs4)c2)NC(=O)CC3)cn(C)c1=O [Compound 83, 6-(1,5-dimethyl-6-oxo-1,6-dihydropyridin-3-yl)-8-(thiazol-2-ylmethoxy)-3,4-dihydroquinolin-2(1H)-one] | 510
3 | Cc1cc(-c2ccc3c(c2Cc2cccc(C#N)c2)CCC(=O)N3)cn(C)c1=O [Compound 88, 3-((6-(1,5-dimethyl-6-oxo-1,6-dihydropyridin-3-yl)-2-oxo-1,2,3,4-tetrahydroquinolin-5-yl)methyl)benzonitrile] | 260
4 | Cc1cc(-c2ccc3c(c2Cc2cccc(F)c2)CCC(=O)N3)cn(C)c1=O [Compound 86, 6-(1,5-dimethyl-6-oxo-1,6-dihydropyridin-3-yl)-5-(3-fluorobenzyl)-3,4-dihydroquinolin-2(1H)-one] | 370
5 | Cc1cc(-c2cc3c(c(OCC4CCC4)c2)NC(=O)CC3)cn(C)c1=O [Compound 20, 8-(cyclobutylmethoxy)-6-(1,5-dimethyl-6-oxo-1,6-dihydropyridin-3-yl)-3,4-dihydroquinolin-2(1H)-one] | 790
6 | Cc1cc(-c2cc3c(cc2COC2CCCC2)CCC(=O)N3)cn(C)c1=O [Compound 34, 6-((cyclopentyloxy)methyl)-7-(1,5-dimethyl-6-oxo-1,6-dihydropyridin-3-yl)-3,4-dihydroquinolin-2(1H)-one] | 2820
7 | Cc1cc(-c2ccc3c(c2COC2CCCC2)NC(=O)CC3)cn(C)c1=O [Compound 38, 8-((cyclopentyloxy)methyl)-7-(1,5-dimethyl-6-oxo-1,6-dihydropyridin-3-yl)-3,4-dihydroquinolin-2(1H)-one] | 540
8 | Cn1cc(-c2cc3c(c(OCc4cccnc4)c2)NC(=O)CC3)cc(Cl)c1=O [Compound 80, 6-(5-chloro-1-methyl-6-oxo-1,6-dihydropyridin-3-yl)-8-(pyridin-3-yl-methoxy)-3,4-dihydroquinolin-2(1H)-one] | 520
9 | Cc1cc(-c2cc3c(c(OCc4cnccn4)c2)NC(=O)CC3)cn(C)c1=O [Compound 52, 6-(1,5-dimethyl-6-oxo-1,6-dihydropyridin-3-yl)-8-(pyrazin-2-ylmethoxy)-3,4-dihydroquinolin-2(1H)-one] | 550
10 | Cc1cc(-c2cc3c(c(OCc4cocn4)c2)NC(=O)CC3)cn(C)c1=O [Compound 84, 6-(1,5-dimethyl-6-oxo-1,6-dihydropyridin-3-yl)-8-(oxazol-4-ylmethoxy)-3,4-dihydroquinolin-2(1H)-one] | 510
11 | Cc1cc(-c2cc3c(c(CNC4CCCCC4)c2)NC(=O)CC3)cn(C)c1=O [Compound 24, 8-[(cyclohexylamino)methyl]-6-(1,5-dimethyl-6-oxo-3-pyridyl)-3,4-dihydro-1H-quinolin-2-one] | 830
12 | Cc1cc(-c2ccc3c(c2/C=C/c2ccccc2)CCC(=O)N3)cn(C)c1=O [Compound 94, (E)-6-(1,5-dimethyl-6-oxo-1,6-dihydropyridin-3-yl)-5-styryl-3,4-dihydroquinolin-2(1H)-one] | 730
13 | Cc1cccnc1COc1cc(-c2cc(C)c(=O)n(C)c2)cc2c1NC(=O)CC2 [Compound 76, 6-(1,5-dimethyl-6-oxo-1,6-dihydropyridin-3-yl)-8-((3-methylpyridin-2-yl)methoxy)-3,4-dihydroquinolin-2(1H)-one] | 560
14 | Cc1cc(-c2cc3c(c(OCC4CCCCC4)c2)NC(=O)CC3)cn(C)c1=O [Compound 71] | 540
15 | Cc1cc(-c2ccc3c(c2Cc2ccncc2)CCC(=O)N3)cn(C)c1=O [Compound 59, 6-(1,5-dimethyl-6-oxo-1,6-dihydropyridin-3-yl)-5-(pyridin-4-ylmethyl)-3,4-dihydroquinolin-2(1H)-one] | 270
16 | Cc1cc(-c2cc3c(cc2COC2CCCC2)NC(=O)CC3)cn(C)c1=O [Compound 70, 7-((cyclopentyloxy)methyl)-6-(1,5-dimethyl-6-oxo-1,6-dihydropyridin-3-yl)-3,4-dihydroquinolin-2(1H)-one] | 7820
17 | Cc1cc(-c2ccc3c(c2COC2CCCC2)CCC(=O)N3)cn(C)c1=O [Compound 68, 5-((cyclopentyloxy)methyl)-6-(1,5-dimethyl-6-oxo-1,6-dihydropyridin-3-yl)-3,4-dihydroquinolin-2(1H)-one] | 8560
18 | Cc1cc(-c2cc3c(c(COC4CCCOC4)c2)NC(=O)CC3)cn(C)c1=O (stereo not shown) [Compound 48a, 6-(1,5-dimethyl-6-oxo-1,6-dihydropyridin-3-yl)-8-(((tetrahydro-2H-pyran-3-yl)oxy)methyl)-3,4-dihydroquinolin-2(1H)-one] | 2120
19 | Cc1cc(-c2cc3c(c(COc4ccccc4)c2)NC(=O)CC3)cn(C)c1=O [Compound 44, 6-(1,5-dimethyl-6-oxo-1,6-dihydropyridin-3-yl)-8-(phenoxymethyl)-3,4-dihydroquinolin-2(1H)-one] | 270
20 | Cc1cc(-c2cc3c(c(OCc4ccccn4)c2)NC(=O)CC3)cn(C)c1=O [Compound 26, 6-(1,5-dimethyl-6-oxo-1,6-dihydropyridin-3-yl)-8-(pyridin-2-ylmethoxy)-3,4-dihydroquinolin-2(1H)-one] | 280

Now from value to molecule:

Row | IC50 [nM] | Structure (SMILES)
21 | 240 | Cc1cc(-c2cc3c(cc2Cc2ccc(F)cc2)NC(=O)CC3)cn(C)c1=O [Compound 90, 6-(1,5-dimethyl-6-oxo-1,6-dihydropyridin-3-yl)-7-(4-fluorobenzyl)-3,4-dihydroquinolin-2(1H)-one]
22 | 250 | Cc1cc(-c2cc3c(c(N(C)Cc4ccccc4)c2)NC(=O)CC3)cn(C)c1=O [Compound 5, 8-[benzyl(methyl)amino]-6-(1,5-dimethyl-6-oxo-3-pyridyl)-3,4-dihydro-1H-quinolin-2-one]
23 | 250 | Cc1cc(-c2cc3c(c(OCc4cscn4)c2)NC(=O)CC3)cn(C)c1=O [Compound 82, 6-(1,5-dimethyl-6-oxo-1,6-dihydropyridin-3-yl)-8-(thiazol-4-ylmethoxy)-3,4-dihydroquinolin-2(1H)-one]
24 | 240 | Cn1cc(-c2cc3c(c(OCc4ccccn4)c2)NC(=O)CC3)cc(Cl)c1=O [Compound 79, 6-(5-chloro-1-methyl-6-oxo-1,6-dihydropyridin-3-yl)-8-(pyridin-2-ylmethoxy)-3,4-dihydroquinolin-2(1H)-one]
25 | 100 | Cc1cc(-c2ccc3c(c2Cc2ccc(F)cc2)CCC(=O)N3)cn(C)c1=O [Compound 91, 6-(1,5-dimethyl-6-oxo-1,6-dihydropyridin-3-yl)-5-(4-fluorobenzyl)-3,4-dihydroquinolin-2(1H)-one]
26 | 100 | Cc1cc(-c2ccc3c(c2Cc2ccc(C#N)cc2)CCC(=O)N3)cn(C)c1=O [Compound 87, 4-((6-(1,5-dimethyl-6-oxo-1,6-dihydropyridin-3-yl)-2-oxo-1,2,3,4-tetrahydroquinolin-5-yl)methyl)benzonitrile]
27 | 240 | Cc1cc(-c2ccc3c(c2Cc2ccccn2)CCC(=O)N3)cn(C)c1=O [Compound 57, 6-(1,5-dimethyl-6-oxo-1,6-dihydropyridin-3-yl)-5-(pyridin-2-ylmethyl)-3,4-dihydroquinolin-2(1H)-one]
28 | 30 | Cc1cc(-c2ccc3c(c2C(C)c2ccccc2)CCC(=O)N3)cn(C)c1=O (stereo not shown) [Compound 95, 6-(1,5-dimethyl-6-oxo-1,6-dihydropyridin-3-yl)-5-(1-phenylethyl)-3,4-dihydroquinolin-2(1H)-one]
29 | 150 | Cc1cc(-c2cc3c(c(OCc4cccnc4)c2)NC(=O)CC3)cn(C)c1=O [Compound 25, 6-(1,5-dimethyl-6-oxo-1,6-dihydropyridin-3-yl)-8-(pyridin-3-ylmethoxy)-3,4-dihydroquinolin-2(1H)-one]
30 | 180 | Cc1ccc(COc2cc(-c3cc(C)c(=O)n(C)c3)cc3c2NC(=O)CC3)nc1 [Compound 75, 6-(1,5-dimethyl-6-oxo-1,6-dihydropyridin-3-yl)-8-((5-methylpyridin-2-yl)methoxy)-3,4-dihydroquinolin-2(1H)-one]
31 | 190 | Cc1cc(-c2cc3c(c(OCC4CCCC4)c2)NC(=O)CC3)cn(C)c1=O [Compound 29, 8-(cyclopentylmethoxy)-6-(1,5-dimethyl-6-oxo-1,6-dihydropyridin-3-yl)-3,4-dihydroquinolin-2(1H)-one]

same assay, conditions: inhibition of C-Myc mRNA, 4 hours treatment

Row | Structure (SMILES) | IC50 [nM]
32 | Cc1cc(-c2cc3c(c(NC(C)c4ccccn4)c2)NC(=O)CC3)cn(C)c1=O (stereo not shown) [Compound 23, 6-(1,5-dimethyl-6-oxo-3-pyridyl)-8-[1-(2-pyridyl)ethylamino]-3,4-dihydro-1H-quinolin-2-one] | 240
33 | Cc1cc(-c2cc3c(c(OCC4CCCCO4)c2)NC(=O)CC3)cn(C)c1=O (stereo not shown) [Compound 55b, 6-(1,5-dimethyl-6-oxo-1,6-dihydropyridin-3-yl)-8-((tetrahydro-2H-pyran-2-yl)methoxy)-3,4-dihydroquinolin-2(1H)-one] | 800
34 | Cc1cc(-c2cc3c(c(COC4CCCOC4)c2)NC(=O)CC3)cn(C)c1=O (stereo not shown) [Compound 48b, 6-(1,5-dimethyl-6-oxo-1,6-dihydropyridin-3-yl)-8-(((tetrahydro-2H-pyran-3-yl)oxy)methyl)-3,4-dihydroquinolin-2(1H)-one] | 2740
